In US6716597B2, “Methods and products for regulating cell motility” (priority 2000, dated 2004):

System: Rat2 fibroblasts
Assay: Time-lapse videomicroscopy random migration assay (cell speed, polarity)
Assay type: cell-based, rat
Settings: Rat2 cells
Procedure: Cells adapted to microscopy media (Life Technologies, Rockville, Md.) as described above were trypsinized, counted, and resuspended in microscopy media at 7.14×10^3 cells/mL. 1.4 mL (10,000 cells) of this cell suspension was added to a ΔT dish (Bioptechs Inc., Butler, Pa.) that had previously been coated overnight with 10 μg/mL fibronectin (Becton Dickinson) at 4° C. and then blocked with lmg/mL cell-culture-grade BSA (Sigma, St. Louis, Mo.). Cells were allowed to attach and spread for 1 hour at 37° C. before movies were initiated. 10x phase contrast movies were 4.5 hours long with a frame taken every five minutes. A custom time-lapse collection script written in IPLabs was used to automate microscope and camera function. Light was shutter controlled. […] Cell paths were generated from the calculated centroid positions and parameters (speed and membrane flow) were calculated from the resulting path file. Speed was calculated using the Central Difference Method in DIAS, which is equivalent to a root mean squared calculation. […]
Rat 2 cells were exposed to 0, 5 nM, 25 nM, 50 nM, or 500 nM cytochalasin D and motility was measured. One set of cells received no cytochalasin D. Other cells received a low dose of cytochalasin D (e.g. 5 nM or 25 nM) or a high dose of cytochalasin D. (e.g. 500 nM) The motility of the treated cells was assessed using the motility assay described above.

In the case of `C=C1[C@@H](C)[C@H]2[C@H](Cc3ccccc3)NC(=O)[C@]23[C@H](OC(C)=O)/C=C/[C@@](C)(O)C(=O)[C@@H](C)C/C=C/[C@H]3[C@@H]1O` [cytochalasin D, reference compound], the cell speed (25 nM (low dose)) was “increased” and the cell speed (500 nM (high dose)) was “decreased”.
